Laboratory results published in patent US6458797B1, “Methods for remodeling neuronal and cardiovascular pathways” (Queen's University of Kingston, priority 1998, dated 2002).

Tests used:
[1] = test system: spontaneously hypertensive rats (SHR); experiment: Left ventricle weight of SHR after 1 or 2 weeks of drug treatment; format: in vivo, rat; details: for Left Ventricle Weight (g)/Body Weight (kg) Ratio: control 2.46 ± 0.08
Procedure: Following this treatment, structurally-based resistance to blood flow in the perfused penile vascular bed and hindlimb vascular bed models were measured using the methods detailed above. […] The animal hearts were excised and weighed.

[2] = test system: spontaneously hypertensive rats (SHR); experiment: Structurally-based vascular resistance in perfused vascular bed of SHR after 1 or 2 weeks of drug treatment; format: in vivo, rat; details: for Slope Flow Pressure: control 7.13 ± 0.63; for Maximum Constriction With Cocktail “Yield”: control 381 ± 21
Procedure: Penile perfusion preparations were made using the procedure established by Banting, J. D., et al., “Isolation and Perfusion of the Pudendal Vasculature in Male Rats. J Urol., 2: 587-590 (1995). A heated chamber served to maintain the ambient temperature and the entire preparation at 37-38° C. The perfusate was held in a reservoir and passed through a heating and a bubble trapping/mixing chamber connected to a single peristaltic pump (Minipuls 2 Pump, Gilson, Inc., 3000 W. Beltline Highway, Middleton, Wis. USA 53562). An injection port was located distal to the pump for the introduction of pharmacological agents to minimize dead volume. Drugs were administered via a Harvard Apparatus, Inc. infusion pump (Harvard Apparatus, Inc., 84 October Hill Road, Holliston, Mass. 01746). The perfusate was a Tyrode-dextran solution consisting of a mixture of 20 mg of KCI, 32.3mg of CaCl2.H2O, 5.1 mg of MgCl2.6H2O, 6.2 mg of NaH2PO4.2H2O, 155 mg of NaHCO3, 100 mg of glucose, and 800 mg of NaCl in each 100 mL of fluid. The solution was maintained at pH 7.4, and a temperature of 37-39° C., and oxygenated with 95% O2 and 5% CO2. The rats were anaesthetized (sodium pentobarbital 60 mg/kg body weight i.p.) and heparinized (1000 IU/kg, i.v.). The bilateral isolation of penile vasculature was achieved by ligating all of the branching arteries except for the pudendal; then the abdominal aorta was cannulated proximal to the iliac bifurcation with a single lumen catheter. The catheter was connected to the perfusion apparatus via a pressure transducer for arterial pressure recording. After sectioning the vena cava and spinal cord to remove venous resistance and to eliminate neural influences, a flow of perfusate (1 mL/min per kg body weight) through the abdominal cannula was initiated. The perfusion pressure was continuously recorded on a data acquisition system (MacLab, AD Instruments, Houston, Tex.). The perfusate was infused for twenty minutes to flush the penile vasculature of blood and obtain a stable pressure before the beginning of any experiment. Following this, sodium nitroprusside (20 μg/mL) was infused to induce maximum vasodilation. The flow rate-perfusion/pressure relationship was determined by measuring the pressure at minimum vascular resistance at flow rates of 0.5, 1.0, 2.0, 4.0 mL/min per kg of body weight. A cumulative α1-adrenoreceptor concentration-response curve to methoxamine (2.5, 5, 10, 25, 50 μg/mL was then generated. Each concentration of methoxamine was infused for a duration of 10 minutes, at which time a plateau was reached. Subsequently, a continuous injection of a cocktail containing a supramaximal concentration of vasoconstrictors (vasopressin, 20.5 μg/mL, angiotensin-II, 200 ng/mL; methoxamine, 64 μg/mL; Sigma, St. Louis, Mo., 63178) was given to ensure that maximum constrictor response that was not dependent upon the activation of a single receptor type was achieved. A second injection of the constrictor cocktail was administered to ensure the tissue “yield” was maximum constriction. […] At the end of the concentration-response relationship, the aorta was cut distal to the catheter, and a baseline flow-pressure curve was recorded again. This was done to ensure that pressure fell to zero and to account for any false pressure readings that may have resulted due to movement of the catheter during the experiment.
The hindlimb perfusion preparation was adopted from a technique originally designed by Folkow et al., Acta Physiol Scand., 80: 93-106 (1973), as modified by Adams et al., Hypertension, 14: 191-202 (1989). The perfusion experiment was performed as described above. Drugs were administered into the mixing chamber via a Harvard Apparatus infusion pump. The rats were anaesthetized (Inactin, 100 mg/kg of body weight, i.p.) and heparinized (1000 IU/kg of body weight, i.v.).

α1-adrenoreceptor [3] = experiment: Hindlimb vascular bed perfusion, cumulative α1-adrenoreceptor concentration-response curve to methoxamine; parameters: species or system rat; details: mean ± SD
Procedure: Male spontaneously hypertensive (SH) rats weighing between 246-313 g, and normotensive Sprague-Dawley (SD) rats weighing between 246-440 g were obtained from Charles River Laboratories (Montreal, Quebec, Canada). The animals were maintained in individual cages with a 12 hour light/12 hour dark cycle, and a room temperature of 22-24° C. They were provided with standard rodent chow and tap water ad libitum and were acclimated to the room for at least two days before the experiments. All procedures were carried out in accordance with the guidelines set out by the Canadian Council on Animal Care. The hindlimb perfusion preparation was adopted from a technique originally designed by Folkow et al., Acta Physiol Scand., 80: 93-106 (1973), as modified by Adams et al., Hypertension, 14: 191-202 (1989). The perfusion experiment was performed as described above. Drugs were administered into the mixing chamber via a Harvard Apparatus infusion pump. […] Following a midline abdominal incision, the abdominal aorta was cannulated proximal to the iliac bifurcation with a double lumen catheter (Storz, St Louis, Mo., USA), and the catheter was extended down the right common iliac artery. One lumen of the catheter was connected to the perfusion apparatus, while the other was connected to a pressure transducer for arterial pressure recording. […] A cumulative α1-adrenoreceptor concentration-response curve to methoxamine (0.5, 1, 2, 4, 8, 16, 32, 64 μg/mL) was then generated. […] Subsequently, a bolus injection of a cocktail containing a supramaximal concentration of vasoconstrictors was given as above. At the end of the concentration-response relationship, the iliac artery was cut distal to the catheter, and the flow pressure curve was monitored again. Flow rates for the hindlimb perfusion experiments were determined based on expected flow rates of exercising skeletal muscle at maximum dilation. […] All values in the figures and tables were expressed as mean ± standard deviation. Results comparing penile and hindlimb vasculature were analyzed using the Student's t-test. […]

α1-adrenoreceptor [4] = experiment: Penile vascular bed perfusion, cumulative α1-adrenoreceptor concentration-response curve to methoxamine; parameters: species or system rat; details: mean ± SD; for Slope Methoxamine: steepest slope of concentration-response curve
Procedure: Male spontaneously hypertensive (SH) rats weighing between 246-313 g, and normotensive Sprague-Dawley (SD) rats weighing between 246-440 g were obtained from Charles River Laboratories (Montreal, Quebec, Canada). The animals were maintained in individual cages with a 12 hour light/12 hour dark cycle, and a room temperature of 22-24° C. They were provided with standard rodent chow and tap water ad libitum and were acclimated to the room for at least two days before the experiments. All procedures were carried out in accordance with the guidelines set out by the Canadian Council on Animal Care.
Penile perfusion preparations were made using the procedure established by Banting, J. D., et al., “Isolation and Perfusion of the Pudendal Vasculature in Male Rats. J Urol., 2: 587-590 (1995). A heated chamber served to maintain the ambient temperature and the entire preparation at 37-38° C. The perfusate was held in a reservoir and passed through a heating and a bubble trapping/mixing chamber connected to a single peristaltic pump (Minipuls 2 Pump, Gilson, Inc., 3000 W. Beltline Highway, Middleton, Wis. USA 53562). An injection port was located distal to the pump for the introduction of pharmacological agents to minimize dead volume. Drugs were administered via a Harvard Apparatus, Inc. infusion pump (Harvard Apparatus, Inc., 84 October Hill Road, Holliston, Mass. 01746). The perfusate was a Tyrode-dextran solution consisting of a mixture of 20 mg of KCI, 32.3mg of CaCl2.H2O, 5.1 mg of MgCl2.6H2O, 6.2 mg of NaH2PO4.2H2O, 155 mg of NaHCO3, 100 mg of glucose, and 800 mg of NaCl in each 100 mL of fluid. The solution was maintained at pH 7.4, and a temperature of 37-39° C., and oxygenated with 95% O2 and 5% CO2. The rats were anaesthetized (sodium pentobarbital 60 mg/kg body weight i.p.) and heparinized (1000 IU/kg, i.v.). The bilateral isolation of penile vasculature was achieved by ligating all of the branching arteries except for the pudendal; then the abdominal aorta was cannulated proximal to the iliac bifurcation with a single lumen catheter. The catheter was connected to the perfusion apparatus via a pressure transducer for arterial pressure recording. […] The perfusion pressure was continuously recorded on a data acquisition system (MacLab, AD Instruments, Houston, Tex.). […] The flow rate-perfusion/pressure relationship was determined by measuring the pressure at minimum vascular resistance at flow rates of 0.5, 1.0, 2.0, 4.0 mL/min per kg of body weight. […] At the end of the concentration-response relationship, the aorta was cut distal to the catheter, and a baseline flow-pressure curve was recorded again. […]

[5] = SHR, enalapril 30 mg/kg per day, 2-week period of treatment, versus control
[6] = SHR-E1: enalapril 30 mg/kg per day, 1 week, n = 5
[7] = SHR-E2: enalapril 30 mg/kg per day, 2 weeks, n = 7
[8] = SHR-H: hydralazine 45 mg/kg per day, n = 7

**Q.** How did the “decrease of left ventricular mass” value [1, 5] turn out when `CCOC(=O)[C@H](CCc1ccccc1)N[C@@H](C)C(=O)N1CCC[C@H]1C(=O)O` [enalapril] was run?
**A.** 13.6%±3.2%

**Q.** What about the “Left Ventricle Weight (g)/Body Weight (kg) Ratio” value [1, 6] of the same molecule?
**A.** 2.17 ± 0.05 g/kg

**Q.** And the “Left Ventricle Weight (g)/Body Weight (kg) Ratio” value [1, 7]?
**A.** 2.13 ± 0.08 g/kg

**Q.** And the “decrease of “yield” value” [2, 5]?
**A.** 12.1%±6.0%

**Q.** And the “Slope Flow Pressure” value [2, 6]?
**A.** 6.10 ± 1.5

**Q.** And the “Maximum Constriction With Cocktail “Yield”” value [2, 6]?
**A.** 358 ± 20 mm Hg

**Q.** What about the “Slope Flow Pressure” value [2, 7] of the same molecule?
**A.** 6.45 ± 1.31

**Q.** What about the “Maximum Constriction With Cocktail “Yield”” value ([2]; SHR-E2: enalapril 30 mg/kg per day, 2 weeks, n = 7, vasopressin, angiotensin-II, methoxamine cocktail) of the same molecule?
**A.** 335 ± 23 mm Hg

**Q.** With `NNc1nncc2ccccc12` [hydralazine] as the molecule, how does the “decrease of left ventricular weight” value ([1]; SHR, hydralazine 45 mg/kg per day, versus control, no significant effect) read?
**A.** 3.7%±5.0%

**Q.** What about the “Left Ventricle Weight (g)/Body Weight (kg) Ratio” value [1, 8] of the same molecule?
**A.** 2.37 ± 0.12 g/kg

**Q.** What about the “decrease of “yield” point” value ([2]; SHR, hydralazine 45 mg/kg per day, versus control) of the same molecule?
**A.** 7.3%±2.9%

**Q.** What about the “Slope Flow Pressure” value [2, 8] of the same molecule?
**A.** 6.63 ± 0.86

**Q.** And the “Maximum Constriction With Cocktail “Yield”” value [2, 8]?
**A.** 353 ± 11 mm Hg

**Q.** `COc1ccc(OC)c(C(O)C(C)N)c1` (centres unmarked) [methoxamine] was tested. Which “Maximum Constriction With Methoxamine” value (α1-adrenoreceptor [3]; SD, methoxamine 64 μg/mL) did it give?
**A.** 191 ± 55 mm Hg

**Q.** And the “Slope Methoxamine” value (α1-adrenoreceptor [3]; SD, steepest slope of concentration-response curve)?
**A.** 3.0±0.99

**Q.** What about the “Maximum Constriction With Methoxamine” value (α1-adrenoreceptor [3]; SHR, perfusion pressure at supramaximal methoxamine 64 μg/mL) of the same molecule?
**A.** 253±25 mm Hg

**Q.** And the “Maximum Constriction With Methoxamine” value (α1-adrenoreceptor [4]; SD (normotensive Sprague-Dawley), methoxamine 50 μg/mL)?
**A.** 171 ± 36 mm Hg

**Q.** What about the “Slope Methoxamine” value (α1-adrenoreceptor [4]; SD) of the same molecule?
**A.** 2.03±0.68

**Q.** And the “Maximum Constriction With Methoxamine” value (α1-adrenoreceptor [4]; SHR, perfusion pressure at supramaximal methoxamine 50 μg/mL)?
**A.** 172±32 mm Hg

**Q.** What about the “Slope Methoxamine” value (α1-adrenoreceptor [4]; SHR) of the same molecule?
**A.** 1.64±0.21
